Values after ≈ are worked out from the molar mass of the structure shown. Active and inactive are the calls of the source. No cut-off for these calls is given here.
Tests used:
[1] = target: T1, Transient receptor potential cation channel subfamily M member 8 (Homo sapiens, UniProt Q7Z2W7); assay: Inhibition of human TRPM8 expressed in HEK293 cells assessed as reduction in ethyl 4-methoxy-2-phenylthiazole-5-carboxylate induced Ca2+ efflux preincubated for 5 mins followed by ethyl 4-methoxy-2-phenylthiazole-5-carboxylate addition and measured for 3 mins by FLIPR assay; type: cell-based
[2] = Metabolic stability in rat liver microsomes assessed as parent compound remaining after 30 mins; type: ADME, Microsome; conditions: for remaining at 0.5 h: read-out: Stability
[3] = Dissociation constant, pKa of the compound; type: physicochemical
[4] = Lipophilicity, logD of the compound at pH 7.4; type: physicochemical; conditions: buffer
[5] = Lipophilicity, logP of compound; type: physicochemical; conditions: octanol/water
[6] = Stability in rat plasma assessed as compound remaining after 60 mins; type: ADME, cell-free; conditions: read-out: Stability
[7] = Stability in human plasma assessed as compound remaining after 60 mins; type: ADME, cell-free; conditions: read-out: Stability
[8] = Cmax in rat at 10 mg/kg, po; type: ADME, organism-based; design: dose 10 mg/kg, route po; conditions: in vivo
[9] = Half life in rat at 3 mg/kg, iv; type: ADME, organism-based; conditions: in vivo
[10] = Half life in rat at 10 mg/kg, po; type: ADME, organism-based; conditions: in vivo
[11] = Solubility of compound at pH 7.4; type: physicochemical; conditions: buffer
[12] = Volume of distribution at steady state in rat at 3 mg/kg, iv; type: ADME, organism-based; conditions: in vivo, read-out: Vdss
[13] = Clearance in rat at 3 mg/kg, iv; type: ADME, organism-based; conditions: in vivo
[14] = Oral bioavailability in rat at 10 mg/kg; type: ADME, organism-based; conditions: in vivo
[15] = Metabolic stability in rat liver microsomes assessed as phase 1 metabolism by measuring half life; type: ADME, Microsome
[16] = Stability in human hepatocytes assessed as half life; type: ADME, cell-based, Hepatocyte
[17] = Metabolic stability in rat liver microsomes assessed as phase 2 metabolism by measuring half life; type: ADME, Microsome
[18] = Metabolic stability in rat liver microsomes assessed as parent compound remaining after 4 hrs; type: ADME, Microsome; conditions: read-out: Stability
[19] = Half life in rat at 10 mg/kg, iv; type: ADME, organism-based; conditions: in vivo
[20] = Volume of distribution at steady state in rat at 10 mg/kg, iv; type: ADME, organism-based; conditions: in vivo, read-out: Vdss
[21] = Clearance in rat at 10 mg/kg, iv; type: ADME, organism-based; conditions: in vivo
[22] = Stability in stimulated gastric fluid at pH 1.2; type: physicochemical; conditions: simulated gi fluid
[23] = target: Transient receptor potential cation channel subfamily V member 1 (Homo sapiens) (UniProt Q8NER1); assay: Inhibition of TRPV1 (unknown origin) upto 100 uM
[24] = target: Transient receptor potential cation channel subfamily V member 4 (Homo sapiens) (UniProt Q9HBA0); assay: Inhibition of TRPV4 (unknown origin) upto 100 uM
[25] = Metabolic stability in human liver S9 fraction assay as half life in presence of NADPH, glutathione, UDPGA and PAPS; type: ADME, subcellular
[26] = Apparent permeability in HCECs at 0.1%; type: ADME, cell-based, HCEC; conditions: human, not told
[27] = target: Transient receptor potential cation channel subfamily A member 1 (Homo sapiens) (UniProt O75762); assay: Inhibition of TRPA1 (unknown origin) upto 100 uM
[28] = target: Sodium channel protein type 9 subunit alpha (Homo sapiens) (UniProt Q15858); assay: Inhibition of Nav1.7 (unknown origin)
[29] = target: T1, Transient receptor potential cation channel subfamily M member 8; assay: Inhibition of human TRPM8 expressed in HEK293 cells assessed as reduction in icilin induced Ca2+ efflux preincubated for 5 mins followed by icilin addition and measured for 3 mins by FLIPR assay; type: cell-based
[30] = Clearance in rat at 5 mg/kg, iv; type: ADME, organism-based; conditions: in vivo
[31] = target: Transient receptor potential cation channel subfamily M member 3 (Homo sapiens) (UniProt Q9HCF6); assay: Inhibition of TRPM3 (unknown origin) upto 100 uM
[32] = Half life in rat at 5 mg/kg, iv; type: ADME, organism-based; conditions: in vivo
[33] = target: T1, Transient receptor potential cation channel subfamily M member 8; assay: Inhibition of human TRPM8 expressed in HEK293 cells assessed as reduction in cold stimulated Ca2+ efflux preincubated for 5 mins followed by cold stimulation and measured for 3 mins; type: cell-based
[34] = Volume of distribution at steady state in rat at 5 mg/kg, iv; type: ADME, organism-based; conditions: in vivo, read-out: Vdss

T1 sequence (Q7Z2W7 whole entry): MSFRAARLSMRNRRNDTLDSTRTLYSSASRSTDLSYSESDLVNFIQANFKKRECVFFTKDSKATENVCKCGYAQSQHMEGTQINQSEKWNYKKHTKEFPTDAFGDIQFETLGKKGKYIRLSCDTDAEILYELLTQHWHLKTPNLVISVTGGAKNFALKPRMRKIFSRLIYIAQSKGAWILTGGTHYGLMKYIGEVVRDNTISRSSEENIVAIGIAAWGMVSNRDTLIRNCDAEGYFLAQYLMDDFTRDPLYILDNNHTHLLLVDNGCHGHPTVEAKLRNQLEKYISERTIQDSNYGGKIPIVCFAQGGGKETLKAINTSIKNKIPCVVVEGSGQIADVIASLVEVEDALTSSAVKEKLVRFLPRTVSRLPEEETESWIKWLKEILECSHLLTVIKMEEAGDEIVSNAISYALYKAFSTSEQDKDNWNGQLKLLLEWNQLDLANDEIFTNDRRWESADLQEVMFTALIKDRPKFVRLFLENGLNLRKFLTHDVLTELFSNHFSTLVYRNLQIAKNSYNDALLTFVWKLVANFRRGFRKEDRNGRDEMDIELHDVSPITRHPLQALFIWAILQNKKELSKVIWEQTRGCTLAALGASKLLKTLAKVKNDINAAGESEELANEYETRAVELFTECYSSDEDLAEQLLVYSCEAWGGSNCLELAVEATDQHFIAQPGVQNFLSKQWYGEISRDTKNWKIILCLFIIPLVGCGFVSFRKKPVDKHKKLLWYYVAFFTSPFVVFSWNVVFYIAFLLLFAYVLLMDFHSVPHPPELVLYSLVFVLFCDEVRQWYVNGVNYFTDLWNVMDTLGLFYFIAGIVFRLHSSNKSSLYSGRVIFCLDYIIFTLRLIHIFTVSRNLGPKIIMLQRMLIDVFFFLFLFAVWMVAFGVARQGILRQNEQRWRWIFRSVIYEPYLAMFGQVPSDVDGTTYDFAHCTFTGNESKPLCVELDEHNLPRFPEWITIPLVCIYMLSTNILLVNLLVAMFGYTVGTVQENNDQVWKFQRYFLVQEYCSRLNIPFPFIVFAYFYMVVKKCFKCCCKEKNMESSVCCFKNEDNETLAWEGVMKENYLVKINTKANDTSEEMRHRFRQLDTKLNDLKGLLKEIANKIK
Chain of Transient receptor potential cation channel subfamily A member 1 (Homo sapiens) (O75762 whole entry): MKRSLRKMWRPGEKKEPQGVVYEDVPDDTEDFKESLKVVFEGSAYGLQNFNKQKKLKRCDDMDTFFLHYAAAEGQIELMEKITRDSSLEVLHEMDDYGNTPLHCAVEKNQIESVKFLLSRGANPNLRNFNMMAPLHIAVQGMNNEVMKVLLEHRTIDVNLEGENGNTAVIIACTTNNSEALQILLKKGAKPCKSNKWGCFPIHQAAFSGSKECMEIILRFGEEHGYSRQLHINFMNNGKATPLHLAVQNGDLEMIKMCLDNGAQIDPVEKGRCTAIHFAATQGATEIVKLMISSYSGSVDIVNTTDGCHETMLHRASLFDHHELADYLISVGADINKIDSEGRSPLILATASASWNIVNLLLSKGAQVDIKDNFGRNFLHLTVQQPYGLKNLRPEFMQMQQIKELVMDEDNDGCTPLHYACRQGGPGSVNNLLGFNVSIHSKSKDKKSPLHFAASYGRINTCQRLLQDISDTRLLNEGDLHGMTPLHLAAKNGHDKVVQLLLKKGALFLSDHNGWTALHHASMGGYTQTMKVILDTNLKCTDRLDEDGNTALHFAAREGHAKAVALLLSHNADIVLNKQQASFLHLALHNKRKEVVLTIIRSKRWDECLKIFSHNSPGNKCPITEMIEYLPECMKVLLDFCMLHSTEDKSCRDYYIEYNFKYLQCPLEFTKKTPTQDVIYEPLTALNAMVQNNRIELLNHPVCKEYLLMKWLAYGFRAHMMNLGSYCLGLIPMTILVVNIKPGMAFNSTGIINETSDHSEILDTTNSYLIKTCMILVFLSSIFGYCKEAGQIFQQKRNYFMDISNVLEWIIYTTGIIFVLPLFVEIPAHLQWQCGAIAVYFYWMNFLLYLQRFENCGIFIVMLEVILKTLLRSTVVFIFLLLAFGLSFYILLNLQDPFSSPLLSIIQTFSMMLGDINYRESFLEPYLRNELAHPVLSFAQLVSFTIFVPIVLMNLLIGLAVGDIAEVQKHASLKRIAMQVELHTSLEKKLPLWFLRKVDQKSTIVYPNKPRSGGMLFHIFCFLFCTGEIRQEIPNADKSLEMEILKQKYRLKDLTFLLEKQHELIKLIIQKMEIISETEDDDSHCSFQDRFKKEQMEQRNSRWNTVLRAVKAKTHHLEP
Chain of Transient receptor potential cation channel subfamily V member 4 (Homo sapiens) (Q9HBA0 whole entry): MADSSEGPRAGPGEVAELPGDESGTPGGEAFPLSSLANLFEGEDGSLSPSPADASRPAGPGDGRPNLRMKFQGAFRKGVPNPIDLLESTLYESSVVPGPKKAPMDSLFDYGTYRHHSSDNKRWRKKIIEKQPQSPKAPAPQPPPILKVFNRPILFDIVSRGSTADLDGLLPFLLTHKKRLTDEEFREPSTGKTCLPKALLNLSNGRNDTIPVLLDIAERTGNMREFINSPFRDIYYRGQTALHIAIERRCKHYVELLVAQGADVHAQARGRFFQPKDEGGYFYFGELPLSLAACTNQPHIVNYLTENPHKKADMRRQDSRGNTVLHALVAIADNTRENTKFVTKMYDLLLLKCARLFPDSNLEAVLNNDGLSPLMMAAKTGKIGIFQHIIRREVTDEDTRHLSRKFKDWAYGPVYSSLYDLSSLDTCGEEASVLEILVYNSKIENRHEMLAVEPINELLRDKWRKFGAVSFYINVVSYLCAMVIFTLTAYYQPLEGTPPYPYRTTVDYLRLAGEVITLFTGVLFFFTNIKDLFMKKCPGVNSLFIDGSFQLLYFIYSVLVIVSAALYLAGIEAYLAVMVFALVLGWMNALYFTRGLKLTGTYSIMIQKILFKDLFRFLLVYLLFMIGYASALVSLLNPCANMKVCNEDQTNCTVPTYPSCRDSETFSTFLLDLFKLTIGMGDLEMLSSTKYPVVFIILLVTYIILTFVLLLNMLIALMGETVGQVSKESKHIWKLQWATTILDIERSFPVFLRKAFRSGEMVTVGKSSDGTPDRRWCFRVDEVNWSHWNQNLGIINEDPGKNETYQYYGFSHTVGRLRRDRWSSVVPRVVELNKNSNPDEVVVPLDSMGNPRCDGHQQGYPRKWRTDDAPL
Chain of Transient receptor potential cation channel subfamily V member 1 (Homo sapiens) (Q8NER1 whole entry): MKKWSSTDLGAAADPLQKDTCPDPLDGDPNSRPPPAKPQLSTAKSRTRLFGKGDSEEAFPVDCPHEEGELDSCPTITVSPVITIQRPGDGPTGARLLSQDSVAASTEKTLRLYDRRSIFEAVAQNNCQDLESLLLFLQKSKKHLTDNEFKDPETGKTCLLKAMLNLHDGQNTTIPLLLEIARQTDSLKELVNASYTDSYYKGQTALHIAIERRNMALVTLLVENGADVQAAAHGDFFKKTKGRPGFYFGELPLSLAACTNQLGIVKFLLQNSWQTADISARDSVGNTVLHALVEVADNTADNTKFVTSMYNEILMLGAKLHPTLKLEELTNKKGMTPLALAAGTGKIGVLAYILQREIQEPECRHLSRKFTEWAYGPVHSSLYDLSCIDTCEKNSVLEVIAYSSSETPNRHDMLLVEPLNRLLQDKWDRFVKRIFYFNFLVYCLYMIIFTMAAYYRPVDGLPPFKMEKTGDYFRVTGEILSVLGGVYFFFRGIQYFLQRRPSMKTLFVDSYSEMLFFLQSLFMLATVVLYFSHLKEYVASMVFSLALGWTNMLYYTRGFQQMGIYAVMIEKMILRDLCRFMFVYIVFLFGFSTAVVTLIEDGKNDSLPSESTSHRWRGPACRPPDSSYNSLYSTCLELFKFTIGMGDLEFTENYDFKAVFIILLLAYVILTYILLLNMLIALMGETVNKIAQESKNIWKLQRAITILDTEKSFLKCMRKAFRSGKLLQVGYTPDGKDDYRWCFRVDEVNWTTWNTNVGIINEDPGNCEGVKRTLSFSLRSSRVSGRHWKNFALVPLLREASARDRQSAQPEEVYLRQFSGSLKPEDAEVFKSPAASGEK

CCn1nnc(-c2sc(-c3c(Cl)cccc3Cl)nc2O)n1
IC50 [1]: 16.5 µM

COc1cccc(NS(=O)(=O)c2c(C)cc(C)c([N+](=O)[O-])c2C)c1
remaining at 0.5 h [2]: 29% | pKa [3]: 7.8 | logD [4]: 3.19 | logP [5]: 4.33

CCNC(=O)c1sc(-c2ccccc2)nc1O
IC50 [1]: > 100 µM

O=C(c1sc(-c2cccc(F)c2)nc1O)N1CCCCCO1
IC50 [1]: 0.032 µM

CCOC(=O)Cc1sc(-c2ccccc2)nc1O
IC50 [1]: 0.95 µM

CCOC(=O)c1cnc(-c2ccccc2)s1
IC50 [1]: > 100 µM

CCn1nnc(-c2sc(-c3cccc(F)c3)nc2O)n1
remaining at 1 h [6]: 92% | remaining at 1 h [7]: 95% | Cmax [8]: 47 ng/mL | half-life [2]: < 30 min | pKa [3]: 5.9 | half-life [9]: 44.4 min | half-life [10]: 307 min | solubility [11]: 0.631 mM (≈ 184 µg/mL) | logD [4]: 2 | Vd [12]: 0.082 L/kg | clearance [13]: 3.11 mL/min/kg | bioavailability [14]: 1% | half-life [15]: 38 min | half-life [16]: 56.7 min | half-life [17]: > 5 min

CCn1nnc(-c2sc(-c3cccc(O)c3)nc2O)n1
IC50 [1]: 0.239 µM

CCOC(=O)c1ccc(-c2cccc(F)c2)cc1O
IC50 [1]: > 100 µM

Cn1nnc(-c2sc(-c3cccc(F)c3)nc2O)n1
IC50 [1]: 0.214 µM

CC(=O)c1sc(-c2cccc(F)c2)nc1O
pKa [3]: 4.1 | logD [4]: 0.77 | half-life [15]: 35.2 min | half-life [17]: 108 min

CCn1nnnc1-c1sc(-c2cccc(F)c2)nc1O
IC50 [1]: > 100 µM

CC(C)CC(=O)c1sc(-c2cccc(F)c2)nc1O
pKa [3]: 4.3 | logD [4]: 1.35 | IC50 [1]: 0.289 µM | half-life [15]: 49.8 min | half-life [17]: 156 min

CCn1nnc(-c2sc(-c3ccc(O)cc3)nc2O)n1
IC50 [1]: 11.6 µM

CCOC(=O)c1sc(-c2cccc(F)c2)nc1O
Cmax [8]: 2140 ng/mL | pKa [3]: 4.7 | half-life [10]: 137 min | remaining at 4 h [18]: 105% | half-life [19]: 33.6 min | solubility [11]: 0.08 mM (≈ 21.4 µg/mL) | logD [4]: 1.5 | IC50 [1]: 0.039 µM | bioavailability [14]: 15% | half-life [15]: 27 min | Vd [20]: 0.259 L/kg | clearance [21]: 24 mL/min/kg | Stability [22]: 50% | half-life [17]: > 5 min

Cc1nnc(-c2sc(-c3cccc(F)c3)nc2O)o1
IC50 [1]: 9.1 µM

O=C(c1sc(-c2ccccc2O)nc1O)N1CCCO1
inhibition [23]: inactive | pKa [3]: 9.3 | inhibition [24]: inactive | half-life [25]: 53 min | Papp at 0.1 % [26]: 48.3 ×10⁻⁶ cm/s | solubility [11]: 9.7 mM (≈ 2840 µg/mL) | inhibition [27]: inactive | logD [4]: 0.77 | inhibition [28]: inactive | IC50 [29]: 0.0045 µM

CCOC(=O)c1sc(-c2ccccc2)nc1CO
IC50 [1]: > 100 µM

CCn1nnc(-c2sc(-c3ccc(Cl)cc3)nc2O)n1
IC50 [1]: 7.55 µM

CC(C)C(=O)c1sc(-c2cccc(F)c2)nc1O
pKa [3]: 4.27 | logD [4]: 0.91 | half-life [15]: 59.1 min | half-life [17]: 97.8 min

O=C(c1sc(-c2cccc(F)c2)nc1O)N1CCCO1
pKa [3]: 6.3 | half-life [25]: > 120 min | Papp at 0.1 % [26]: 16.4 ×10⁻⁶ cm/s | solubility [11]: 7.1 mM (≈ 2090 µg/mL) | logD [4]: 0.82

Oc1nc(-c2cccc(F)c2)sc1-c1nn[nH]n1
IC50 [1]: > 100 µM

CCN(C(=O)/C=C/c1cccc([N+](=O)[O-])c1)c1ccccc1
remaining at 0.5 h [2]: 32% | IC50 [1]: 0.575 µM | logP [5]: 3.6

CCCC(=O)c1sc(-c2cccc(F)c2)nc1O
pKa [3]: 4.31 | logD [4]: 1.18 | half-life [15]: 39.3 min | half-life [17]: 127 min

CCn1nnc(-c2sc(-c3cccc(N)c3)nc2O)n1
IC50 [1]: 0.061 µM

CCOC(=O)c1oc(-c2ccc(Cl)cc2)nc1O
IC50 [1]: > 100 µM

CCON(C)C(=O)c1sc(-c2cccc(F)c2)nc1O
IC50 [1]: 1.68 µM

CSc1cc(-c2ccc(Cl)cc2)[nH]n1
remaining at 0.5 h [2]: 41% | logP [5]: 3.57

CCOC(=O)c1sc(-c2cccc(Cl)c2)nc1O
IC50 [1]: 1.3 µM

CCn1nnc(-c2sc(-c3ccc(F)cc3)nc2O)n1
IC50 [1]: 0.286 µM

O=C(O)c1ccc(C(=O)O)c(-c2c3ccc(=O)cc-3oc3cc(O)ccc23)c1 [6-Carboxyfluorescein]
Papp at 0.1 % [26]: 1.9 ×10⁻⁶ cm/s

CCOC(=O)c1sc(-c2ccccc2)nc1O
IC50 [1]: 0.032 µM

Cc1nc(-c2sc(-c3cccc(F)c3)nc2O)no1
IC50 [1]: 1.8 µM

O=C(c1sc(-c2cccc(F)c2)nc1O)N1CCOCC1
IC50 [1]: 12.2 µM

CCOC(=O)c1sc(-c2ccccc2)nc1OC
IC50 [1]: > 100 µM

CCOC(=O)c1sc(-c2ccccc2)nc1N
IC50 [1]: > 100 µM

CCN(CC)c1ccc2c(-c3ccccc3C(=O)O)c3ccc(=[N+](CC)CC)cc-3oc2c1.[Cl-] [RHODAMINE]
Papp at 0.1 % [26]: 36.6 ×10⁻⁶ cm/s

COC(=O)c1sc(-c2ccccc2)nc1O
remaining at 0.5 h [2]: 42% | pKa [3]: 6.3 | logD [4]: 2.5 | logP [5]: 3.77

CCC(=O)c1sc(-c2cccc(F)c2)nc1O
Cmax [8]: 10700 ng/mL | inhibition [23]: inactive | half-life [10]: 188 min | inhibition [24]: inactive | clearance [30]: 5.31 mL/min/kg | solubility [11]: 15.2 mM (≈ 3820 µg/mL) | inhibition [27]: inactive | logD [4]: 0.44 | IC50 [1]: 0.029 µM | inhibition [31]: inactive | bioavailability [14]: 98.8% | half-life [15]: 118 min | half-life [32]: 189 min | IC50 [33]: 0.0085 µM | IC50 [29]: 0.033 µM | Vd [34]: 1.69 L/kg | half-life [17]: 136 min

O=C(c1sc(-c2cccc(F)c2)nc1O)N1CCCOC1
IC50 [1]: > 100 µM

COC(=O)c1nc(-c2ccccc2)sc1O
IC50 [1]: > 100 µM

O=C(O)c1sc(-c2ccccc2)nc1O
IC50 [1]: > 100 µM
